Assay results published in ChEMBL document CHEMBL4627382, “Iheyamides A-C, Antitrypanosomal Linear Peptides Isolated from a Marine Dapis sp. Cyanobacterium” (J Nat Prod, 2020).
pIC50: −log10 of the molar value.

Tests used:
[1] = Selectivity ratio of IC50 for human WI38 cells to IC50 for Trypanosoma brucei rhodesiense IL-1501; format: toxicity; conditions: read-out: Ratio IC50
[2] = Selectivity ratio of IC50 for human WI38 cells to IC50 for Trypanosoma brucei brucei 221; format: toxicity; conditions: read-out: Ratio IC50
[3] = test system: Trypanosoma brucei rhodesiense; assay: Antitrypanosomal activity against Trypanosoma brucei rhodesiense IL-1501 incubated for 69 hrs by AlamarBlue assay; format: functional, organism-based; conditions: IL-1501, 69 h
[4] = test system: Trypanosoma brucei brucei; assay: Antitrypanosomal activity against Trypanosoma brucei brucei 221 incubated for 69 hrs by AlamarBlue assay; format: functional, organism-based; conditions: Trypanosoma brucei, 221, 69 h
WI-38 = assay: Cytotoxicity against human WI38 cells incubated for 72 hrs by MTT assay; format: cell-based; conditions: WI-38, 72 h

CC[C@@H](C)[C@H](C(=O)N1CCC[C@H]1C(=O)N1C(=O)C=C(OC)[C@@H]1C(C)C)N(C)C(=O)[C@@H]1CCCN1C(=O)[C@H](C(C)C)N(C)C(=O)[C@@H](Cc1ccccc1)NC(=O)[C@H](Cc1ccccc1)N(C)C
selectivity ratio [1]: > 10
selectivity ratio [2]: > 10
pIC50 [3]: 5.82
pIC50 [4]: 5.82
pIC50 (WI-38): 4.74

CC[C@@H](C)[C@H](C(=O)O)N(C)C(=O)[C@@H]1CCCN1C(=O)[C@H](C(C)C)N(C)C(=O)[C@@H](Cc1ccccc1)NC(=O)[C@H](Cc1ccccc1)N(C)C
pIC50 [3]: < 4.70
pIC50 [4]: < 4.70
pIC50 (WI-38): < 4.70

CC[C@@H](C)[C@H](C(=O)N1CCC[C@H]1C(=O)O)N(C)C(=O)[C@@H]1CCCN1C(=O)[C@H](C(C)C)N(C)C(=O)[C@@H](Cc1ccccc1)NC(=O)[C@H](Cc1ccccc1)N(C)C
pIC50 [3]: < 4.70
pIC50 [4]: < 4.70
pIC50 (WI-38): < 4.70
